Reference: patent publication US12012398B2, “Bicyclic compounds as androgen receptor modulators” (NIDO BIOSCIENCES, INC., priority 2021, dated 2024)

Tested on: LNCaP cells expressing ARR2PB-FireflyLuc and CMV-RenillaLuc
Experiment: LNCaP ARR2PB-FireflyLuc reporter assay, antagonist mode;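 also: IC50 bins in nM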
Type: cell-based
Settings: Homo sapiens, LNCaP, 48 h, +0.5 nM DHT, 48 h at 37° C., read-out: LNCap Antagonist Archive: IC50
Procedure: LNCaP cells expressing ARR2PB-FireflyLuc and CMV-RenillaLuc were treated with indicated concentrations of test compounds, enzalutamide (negative control), or DHT (positive control)+/−0.5 nM DHT for 48 h at 37° C. Fluorescent signals were read with the ImageXpress Micro Confocal System. Remaining activity (antagonist mode) was calculated as % Remaining Activity=100×[(ReadSample−LCave)/(HCave−LCave)] where HC is cells treated with 0.5 nM DHT only and LC is cells treated with 10 uM enzalutamide+0.5 nM DHT. Activation (agonist mode) was calculated as % Activation=100×[(ReadSample−LCave)/(HCave−LCave)] where HO is cells treated with 1 uM DHT and LC is cells treated with DMSO. Dose response curves and IC50 values were calculated using non-linear regression analysis in XLfit.
The designation “A” indicates an IC50 value of >10 μM, “B” indicates an IC50 value between 1 μM and 10 μM; “C” indicates an IC50 value between 100 nM and 1 μM; and “D” indicates an IC50 value of less than 100 nM.

SMILES | IC50 [nM]
COCCNC(=O)c1cc2ccc(F)cc2n1-c1ccc(C#N)cn1 [Example 52, 1-(5-cyanopyridin-2-yl)-6-fluoro-N-(2-methoxyethyl)-1H-indole-2-carboxamide] | > 10000
COCCNC(=O)c1cc2ccc(F)cc2n1-c1ccc(Cl)cn1 [Example 53, 1-(5-chloropyridin-2-yl)-6-fluoro-N-(2-methoxyethyl)-1H-indole-2-carboxamide] | > 10000
COCCNC(=O)c1cc2ccc(F)cc2n1-c1ncccn1 [Example 54, 6-fluoro-N-(2-methoxyethyl)-1-(pyrimidin-2-yl)-1H-indole-2-carboxamide] | > 10000
COCCN(C(=O)c1cc2cccc(Cl)c2[nH]1)c1ccc(C#N)cc1 [Example 55, 7-chloro-N-(4-cyanophenyl)-N-(2-methoxyethyl)-1H-indole-2-carboxamide] | 100 to 1000
N#Cc1ccc(N(CC2CC2)C(=O)c2cc3cccc(Cl)c3[nH]2)cc1 [Example 56, 7-chloro-N-(4-cyanophenyl)-N-(cyclopropylmethyl)-1H-indole-2-carboxamide] | 100 to 1000
COCCN(C(=O)c1cc2ccc(F)cc2[nH]1)c1ccn(C)n1 [Example 57, 6-fluoro-N-(2-methoxyethyl)-N-(1-methyl-1H-pyrazol-3-yl)-1H-indole-2-carboxamide] | > 10000
O=C(c1cc2cccc(Cl)c2[nH]1)N(c1ccc(F)cc1)C1CCOC1 (centres unmarked) [Example 58, 7-chloro-N-(4-fluorophenyl)-N-(tetrahydrofuran-3-yl)-1H-indole-2-carboxamide] | 100 to 1000
CN(C(=O)c1cc2ccc(F)cc2[nH]1)c1ccccc1 [Example 59, 6-fluoro-N-methyl-N-phenyl-1H-indole-2-carboxamide] | 100 to 1000
N#Cc1cccc2cc(C(=O)N(CC3CC3)c3ccccn3)[nH]c12 [Example 60, 7-((I1-azaneyl)ethynyl)-N-(cyclopropylmethyl)-N-(pyridin-2-yl)-1H-indole-2-carboxamide] | > 10000
C[C@H]1OCC[C@@H]1NC(=O)c1cc2cccc(Cl)c2[nH]1 [Example 61, 7-chloro-N-[(2R,3S)-2-methyloxolan-3-yl]-1H-indole-2-carboxamide] | 100 to 1000
C[C@@H]1OCC[C@@H]1NC(=O)c1cc2cccc(Cl)c2[nH]1 [Example 62, 7-chloro-N-[(2S,3S)-2-methyloxolan-3-yl]-1H-indole-2-carboxamide] | 1000 to 10000
CC1(C)CC(NC(=O)c2cc3cccc(Cl)c3[nH]2)CO1 (centres unmarked) [Example 63, 7-chloro-N-(5,5-dimethyloxolan-3-yl)-1H-indole-2-carboxamide] | > 10000
C[C@@H]1COC[C@H]1NC(=O)c1cc2cccc(Cl)c2[nH]1 [Example 64, 7-chloro-N-[(3S,4S)-4-methyloxolan-3-yl]-1H-indole-2-carboxamide] | 1000 to 10000
C[C@H]1COC[C@H]1NC(=O)c1cc2cccc(Cl)c2[nH]1 [Example 65, 7-chloro-N-[(3S,4R)-4-methyloxolan-3-yl]-1H-indole-2-carboxamide] | 1000 to 10000
CC(C)N(Cc1cnco1)C(=O)c1cc2cccc(C#N)c2[nH]1 [Example 66, 7-cyano-N-isopropyl-N-(1,3-oxazol-5-ylmethyl)-1H-indole-2-carboxamide] | 1000 to 10000
CC(C)N(Cc1cnco1)C(=O)c1cc2cccc(Cl)c2[nH]1 [Example 67, 7-chloro-N-isopropyl-N-(1,3-oxazol-5-ylmethyl)-1H-indole-2-carboxamide] | 100 to 1000
N#Cc1ccc(NC(=O)c2cc3cccc(Cl)c3[nH]2)cc1 [Example 68, 7-chloro-N-(4-cyanophenyl)-1H-indole-2-carboxamide] | 1000 to 10000
O=C(NC1CCCC1)c1cc2cccc(Cl)c2[nH]1 [Example 69, 7-chloro-N-cyclopentyl-1H-indole-2-carboxamide] | > 10000
CN(CC1CCCC1)C(=O)c1cc2cccc(Cl)c2[nH]1 [Example 70, 7-Chloro-N-(cyclopentylmethyl)-N-methyl-1H-indole-2-carboxamide] | 1000 to 10000
O=C(c1cc2cccc(Cl)c2[nH]1)N1CCCC1 [Example 71, 7-chloro-2-(pyrrolidine-1-carbonyl)-1H-indole] | > 10000
CN(C(=O)c1cc2cccc(Cl)c2[nH]1)C1CCOCC1 [Example 72, 7-chloro-N-methyl-N-(oxan-4-yl)-1H-indole-2-carboxamide] | > 10000
CN(C(=O)c1cc2cccc(Cl)c2[nH]1)C1CCCOC1 (centres unmarked) [Example 73, 7-chloro-N-methyl-N-(oxan-3-yl)-1H-indole-2-carboxamide] | > 10000

SMILES | IC50 [nM]
CN(C(=O)c1cc2cccc(Cl)c2[nH]1)C1CCOC(C)(C)C1 (centres unmarked) [Example 74, 7-chloro-N-(2,2-dimethyloxan-4-yl)-N-methyl-1H-indole-2-carboxamide] | 1000 to 10000
CN(C(=O)c1cc2cccc(Cl)c2[nH]1)C1CC(C)(C)NC(C)(C)C1 [Example 75, 7-chloro-N-methyl-N-(2,2,6,6-tetramethylpiperidin-4-yl)-1H-indole-2-carboxamide] | > 10000
COCCN(C(=O)c1cc2cccc(Cl)c2[nH]1)c1ccc(C#N)c(C)c1 [Example 76, 7-chloro-N-(4-cyano-3-methylphenyl)-N-(2-methoxyethyl)-1H-indole-2-carboxamide] | 1000 to 10000
COCCN(C(=O)c1cc2cccc(Cl)c2[nH]1)c1ccc(C#N)cc1C [Example 77, 7-chloro-N-(4-cyano-2-methylphenyl)-N-(2-methoxyethyl)-1H-indole-2-carboxamide] | > 10000
COCCN(C(=O)c1cc2cccc(Cl)c2[nH]1)c1ccc(C#N)c(F)c1 [Example 78, 7-Chloro-N-(4-cyano-3-fluorophenyl)-N-(2-methoxyethyl)-1H-indole-2-carboxamide] | 1000 to 10000
COCCN(C(=O)c1cc2cccc(Cl)c2[nH]1)c1ccc(C#N)cc1F [Example 79, 7-chloro-N-(4-cyano-2-fluorophenyl)-N-(2-methoxyethyl)-1H-indole-2-carboxamide] | 1000 to 10000
CC1OCCC1N(C)C(=O)c1cc2cccc(Cl)c2[nH]1 (centres unmarked) [Example 80, 7-chloro-N-methyl-N-(2-methyloxolan-3-yl)-1H-indole-2-carboxamide] | 1000 to 10000
CN(C(=O)c1cc2cccc(Cl)c2[nH]1)C1CCCCC1 [Example 81, 7-chloro-N-cyclohexyl-N-methyl-1H-indole-2-carboxamide] | 1000 to 10000
CN(C(=O)c1cc2cccc(Cl)c2[nH]1)C12CC(C1)C2 [Example 82, N-[bicyclo[1.1.1]pentan-1-yl]-7-chloro-N-methyl-1H-indole-2-carboxamide] | 100 to 1000
N#Cc1ccc(N(C(=O)c2cc3cccc(Cl)c3[nH]2)C2CCOC2)cc1 (centres unmarked) [Example 83, 7-chloro-N-(4-cyanophenyl)-N-(oxolan-3-yl)-1H-indole-2-carboxamide] | < 100
N#Cc1cccc2cc(C(=O)N(c3ccc(F)cc3)C3CCOC3)[nH]c12 (centres unmarked) [Example 84, 7-cyano-N-(4-fluorophenyl)-N-(oxolan-3-yl)-1H-indole-2-carboxamide] | 100 to 1000
O=C(c1cc2ccc(F)cc2[nH]1)N(c1ccc(F)cc1)C1CCOC1 (centres unmarked) [Example 85, 6-fluoro-N-(4-fluorophenyl)-N-(tetrahydrofuran-3-yl)-1H-indole-2-carboxamide] | < 100
CN(C(=O)c1cc2cccc(Cl)c2[nH]1)C12CC(C#N)(C1)C2 [Example 86, 7-chloro-N-[3-cyanobicyclo[1.1.1]pentan-1-yl]-N-methyl-1H-indole-2-carboxamide] | 1000 to 10000
C[Si](C)(C)CCOCn1c(C(=O)NC23CC(O)(C2)C3)cc2cccc(Cl)c21 [Example 88, 7-chloro-N-(3-hydroxybicyclo[1.1.1]pentan-1-yl)-1-((2-(trimethylsilyl)ethoxy)methyl)-1H-indole-2-carboxamide] | 1000 to 10000
O=C(NC12CC(C1)C2)c1cc2cccc(Cl)c2[nH]1 [Example 89, N-[bicyclo[1.1.1]pentan-1-yl]-7-chloro-1H-indole-2-carboxamide] | 100 to 1000
COCCN(C(=O)c1cc2cccc(Cl)c2[nH]1)C12CC(C1)C2 [Example 90, N-[bicyclo[1.1.1]pentan-1-yl]-7-chloro-N-(2-methoxyethyl)-1H-indole-2-carboxamide] | 1000 to 10000
CN(C(=O)c1cc2ccc(F)cc2[nH]1)C1CC(F)(F)C1 [Example 92, N-(3,3-difluorocyclobutyl)-6-fluoro-N-methyl-1H-indole-2-carboxamide] | 100 to 1000
CN(C(=O)c1cc2ccc(F)cc2[nH]1)C12CC(C1)C2 [Example 93, N-[bicyclo[1.1.1]pentan-1-yl]-6-fluoro-N-methyl-1H-indole-2-carboxamide] | 100 to 1000
CN(C(=O)c1cc2cccc(C#N)c2[nH]1)C12CC(C1)C2 [Example 94, N-[bicyclo[1.1.1]pentan-1-yl]-7-cyano-N-methyl-1H-indole-2-carboxamide] | 1000 to 10000
CN(C(=O)c1cc2ccnc(Cl)c2[nH]1)C12CC(C1)C2 [Example 95, N-[bicyclo[1.1.1]pentan-1-yl]-7-chloro-N-methyl-1H-pyrrolo[2,3-c]pyridine-2-carboxamide] | 100 to 1000
COc1nccc2cc(C(=O)N(C)C34CC(C3)C4)[nH]c12 [Example 96, N-[bicyclo[1.1.1]pentan-1-yl]-7-methoxy-N-methyl-1H-pyrrolo[2,3-c]pyridine-2-carboxamide] | 1000 to 10000
Cc1ncoc1CN(C)C(=O)c1cc2cccc(Cl)c2[nH]1 [Example 97, 7-chloro-N-methyl-N-[(4-methyl-1,3-oxazol-5-yl)methyl]-1H-indole-2-carboxamide] | > 10000
